According to ChEMBL document CHEMBL5058648, “Data for DCP probe SAFit2” (2022):

Assays:
[1] = target: T1, 5-hydroxytryptamine receptor 1D (Homo sapiens, UniProt P28221); assay: GPCRScan assay: inhibition of 5-HT1D; set-up: radioligand conc. used [nm] 1.0 – 2.0, parental cells HEKT
[2] = target: T2, Sodium-dependent noradrenaline transporter (Homo sapiens, UniProt P23975); assay: GPCRScan assay: inhibition of NET; set-up: radioligand conc. used [nm] 1.3 – 5.0, parental cells stable HEK
[3] = target: T3, Sodium-dependent dopamine transporter (Homo sapiens, UniProt Q01959); assay: GPCRScan assay: inhibition of DAT; set-up: radioligand conc. used [nm] 3.6 – 16.0, parental cells stable HEK
T3 sequence (Q01959 whole entry): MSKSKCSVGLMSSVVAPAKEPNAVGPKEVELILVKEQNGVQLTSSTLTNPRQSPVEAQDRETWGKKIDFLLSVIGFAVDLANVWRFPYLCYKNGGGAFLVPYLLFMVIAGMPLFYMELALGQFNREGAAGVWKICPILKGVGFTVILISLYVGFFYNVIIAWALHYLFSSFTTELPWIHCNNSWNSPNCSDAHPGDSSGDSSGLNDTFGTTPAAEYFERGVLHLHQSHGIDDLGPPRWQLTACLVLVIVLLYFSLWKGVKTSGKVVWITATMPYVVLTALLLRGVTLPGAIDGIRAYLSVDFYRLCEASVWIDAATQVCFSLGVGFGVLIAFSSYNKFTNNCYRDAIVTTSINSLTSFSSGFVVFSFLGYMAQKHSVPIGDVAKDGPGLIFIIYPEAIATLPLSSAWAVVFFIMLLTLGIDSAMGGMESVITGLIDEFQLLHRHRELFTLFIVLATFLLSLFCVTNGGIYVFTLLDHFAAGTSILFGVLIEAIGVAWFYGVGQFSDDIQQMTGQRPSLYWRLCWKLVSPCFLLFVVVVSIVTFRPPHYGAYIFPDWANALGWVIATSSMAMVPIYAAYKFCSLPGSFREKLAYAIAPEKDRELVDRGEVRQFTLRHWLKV

Histamine H2 receptor [4] = target: T4, Histamine H2 receptor (Homo sapiens, UniProt P25021); assay: GPCRScan assay: inhibition of H2; set-up: radioligand conc. used [nm] 0.02 – 0.05, parental cells Stable HEK
T4 sequence (P25021 whole entry): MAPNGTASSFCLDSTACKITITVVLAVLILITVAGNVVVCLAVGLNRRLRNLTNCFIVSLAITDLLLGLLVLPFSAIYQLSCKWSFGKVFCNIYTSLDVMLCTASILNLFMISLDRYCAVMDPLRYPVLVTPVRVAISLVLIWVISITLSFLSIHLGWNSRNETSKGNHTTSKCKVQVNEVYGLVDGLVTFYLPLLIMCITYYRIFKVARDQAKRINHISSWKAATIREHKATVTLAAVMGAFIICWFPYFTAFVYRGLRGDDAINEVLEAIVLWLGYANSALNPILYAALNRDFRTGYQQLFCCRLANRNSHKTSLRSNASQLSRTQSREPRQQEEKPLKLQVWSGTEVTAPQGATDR

[5] = target: T5, Sigma intracellular receptor 2 (Homo sapiens, UniProt Q5BJF2); assay: GPCRScan assay: inhibition of Sigma 2; set-up: radioligand conc. used [nm] 5.0, parental cells HEKT
T5 sequence (Q5BJF2 whole entry): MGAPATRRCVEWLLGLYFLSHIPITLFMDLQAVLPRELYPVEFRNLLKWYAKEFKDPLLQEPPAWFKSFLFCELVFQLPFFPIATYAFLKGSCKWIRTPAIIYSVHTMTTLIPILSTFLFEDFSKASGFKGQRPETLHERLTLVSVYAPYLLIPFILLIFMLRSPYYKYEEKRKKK

[6] = target: T6, Sigma non-opioid intracellular receptor 1 (Homo sapiens, UniProt Q99720); assay: GPCRScan assay: inhibition of Sigma 1; set-up: radioligand conc. used [nm] 4.0 – 5.0, parental cells HEKT
T6 sequence (Q99720 whole entry): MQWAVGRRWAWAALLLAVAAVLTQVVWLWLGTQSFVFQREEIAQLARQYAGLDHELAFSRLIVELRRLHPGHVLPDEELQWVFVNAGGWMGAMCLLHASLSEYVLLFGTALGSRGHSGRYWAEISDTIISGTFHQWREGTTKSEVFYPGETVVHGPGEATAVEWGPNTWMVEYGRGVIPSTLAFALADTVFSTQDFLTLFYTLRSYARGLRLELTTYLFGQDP

[7] = target: 5-hydroxytryptamine receptor 1A (Homo sapiens) (UniProt P08908); conditions: Compound concentration 10.0 uM
[8] = target: 5-hydroxytryptamine receptor 1B (Homo sapiens) (UniProt P28222); conditions: Compound concentration 10.0 uM
[9] = target: T1, 5-hydroxytryptamine receptor 1D; conditions: Compound concentration 10.0 uM
[10] = target: 5-hydroxytryptamine receptor 1E (Homo sapiens) (UniProt P28566); conditions: Compound concentration 10.0 uM
[11] = target: 5-hydroxytryptamine receptor 2A (Homo sapiens) (UniProt P28223); conditions: Compound concentration 10.0 uM
[12] = target: 5-hydroxytryptamine receptor 2B (Homo sapiens) (UniProt P41595); conditions: Compound concentration 10.0 uM
[13] = target: 5-hydroxytryptamine receptor 3A (Homo sapiens) (UniProt P46098); conditions: Compound concentration 10.0 uM
[14] = target: 5-hydroxytryptamine receptor 5A (Homo sapiens) (UniProt P47898); conditions: Compound concentration 10.0 uM
[15] = target: 5-hydroxytryptamine receptor 7 (Homo sapiens) (UniProt P34969); conditions: Compound concentration 10.0 uM
[16] = target: D(1A) dopamine receptor (Homo sapiens) (UniProt P21728); conditions: Compound concentration 10.0 uM
D(2) dopamine receptor [17] = target: T7, D(2) dopamine receptor (Homo sapiens, UniProt P14416); conditions: Compound concentration 10.0 uM
T7 sequence (P14416 whole entry): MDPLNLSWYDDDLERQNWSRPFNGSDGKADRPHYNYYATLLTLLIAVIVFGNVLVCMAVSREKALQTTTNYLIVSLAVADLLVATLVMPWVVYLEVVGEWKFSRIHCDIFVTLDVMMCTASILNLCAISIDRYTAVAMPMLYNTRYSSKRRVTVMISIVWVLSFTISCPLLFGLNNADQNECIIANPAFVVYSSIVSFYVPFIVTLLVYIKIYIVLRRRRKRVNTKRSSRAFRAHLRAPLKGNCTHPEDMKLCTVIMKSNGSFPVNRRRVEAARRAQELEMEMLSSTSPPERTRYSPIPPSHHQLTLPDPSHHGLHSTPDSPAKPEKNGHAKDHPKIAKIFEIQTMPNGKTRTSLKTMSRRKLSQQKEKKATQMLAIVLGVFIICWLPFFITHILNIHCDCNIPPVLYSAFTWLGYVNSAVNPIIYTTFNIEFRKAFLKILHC

[18] = target: D(3) dopamine receptor (Homo sapiens) (UniProt P35462); conditions: Compound concentration 10.0 uM
[19] = target: D(4) dopamine receptor (Homo sapiens) (UniProt P21917); conditions: Compound concentration 10.0 uM
[20] = target: D(1B) dopamine receptor (Homo sapiens) (UniProt P21918); conditions: Compound concentration 10.0 uM
[21] = target: Sodium-dependent serotonin transporter (Homo sapiens) (UniProt P31645); conditions: Compound concentration 10.0 uM
[22] = target: T2, Sodium-dependent noradrenaline transporter; conditions: Compound concentration 10.0 uM
[23] = target: T3, Sodium-dependent dopamine transporter; conditions: Compound concentration 10.0 uM
[24] = target: Mu-type opioid receptor (Homo sapiens) (UniProt P35372); conditions: Compound concentration 10.0 uM
[25] = target: Delta-type opioid receptor (Homo sapiens) (UniProt P41143); conditions: Compound concentration 10.0 uM
[26] = target: Kappa-type opioid receptor (Homo sapiens) (UniProt P41145); conditions: Compound concentration 10.0 uM
[27] = target: Histamine H1 receptor (Homo sapiens) (UniProt P35367); conditions: Compound concentration 10.0 uM
Histamine H1 receptor (Homo sapiens), sequence (P35367 whole entry): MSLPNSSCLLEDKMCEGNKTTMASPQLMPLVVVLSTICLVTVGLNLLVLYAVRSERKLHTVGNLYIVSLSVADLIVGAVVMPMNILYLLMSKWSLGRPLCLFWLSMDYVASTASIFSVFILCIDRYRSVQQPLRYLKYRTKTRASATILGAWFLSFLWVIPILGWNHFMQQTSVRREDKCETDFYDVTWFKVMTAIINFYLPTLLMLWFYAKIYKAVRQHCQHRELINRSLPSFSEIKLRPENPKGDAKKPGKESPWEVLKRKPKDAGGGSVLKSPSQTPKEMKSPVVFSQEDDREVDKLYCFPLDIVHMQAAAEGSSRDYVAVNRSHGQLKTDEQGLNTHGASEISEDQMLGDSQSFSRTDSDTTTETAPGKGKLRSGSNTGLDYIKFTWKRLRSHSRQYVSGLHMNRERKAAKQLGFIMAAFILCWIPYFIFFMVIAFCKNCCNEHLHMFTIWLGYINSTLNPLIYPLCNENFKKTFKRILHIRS

Histamine H2 receptor [28] = target: T4, Histamine H2 receptor; conditions: Compound concentration 10.0 uM
[29] = target: Histamine H3 receptor (Homo sapiens) (UniProt Q9Y5N1); conditions: Compound concentration 10.0 uM
Histamine H4 receptor [30] = target: T8, Histamine H4 receptor (Homo sapiens, UniProt Q9H3N8); conditions: Compound concentration 10.0 uM
T8 sequence (Q9H3N8 whole entry): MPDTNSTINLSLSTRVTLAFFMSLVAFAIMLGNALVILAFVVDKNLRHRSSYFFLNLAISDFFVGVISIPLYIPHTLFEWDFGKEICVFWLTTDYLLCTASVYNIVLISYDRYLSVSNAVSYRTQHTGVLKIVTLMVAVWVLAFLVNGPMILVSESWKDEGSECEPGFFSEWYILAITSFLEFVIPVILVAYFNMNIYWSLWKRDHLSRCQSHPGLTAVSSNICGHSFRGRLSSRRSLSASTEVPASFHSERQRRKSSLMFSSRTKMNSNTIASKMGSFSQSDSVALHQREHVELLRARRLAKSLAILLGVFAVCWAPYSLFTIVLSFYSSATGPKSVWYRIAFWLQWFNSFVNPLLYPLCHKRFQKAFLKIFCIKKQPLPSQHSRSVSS

[31] = target: Alpha-1B adrenergic receptor (Homo sapiens) (UniProt P35368); conditions: Compound concentration 10.0 uM
Alpha-1B adrenergic receptor (Homo sapiens), sequence (P35368 whole entry): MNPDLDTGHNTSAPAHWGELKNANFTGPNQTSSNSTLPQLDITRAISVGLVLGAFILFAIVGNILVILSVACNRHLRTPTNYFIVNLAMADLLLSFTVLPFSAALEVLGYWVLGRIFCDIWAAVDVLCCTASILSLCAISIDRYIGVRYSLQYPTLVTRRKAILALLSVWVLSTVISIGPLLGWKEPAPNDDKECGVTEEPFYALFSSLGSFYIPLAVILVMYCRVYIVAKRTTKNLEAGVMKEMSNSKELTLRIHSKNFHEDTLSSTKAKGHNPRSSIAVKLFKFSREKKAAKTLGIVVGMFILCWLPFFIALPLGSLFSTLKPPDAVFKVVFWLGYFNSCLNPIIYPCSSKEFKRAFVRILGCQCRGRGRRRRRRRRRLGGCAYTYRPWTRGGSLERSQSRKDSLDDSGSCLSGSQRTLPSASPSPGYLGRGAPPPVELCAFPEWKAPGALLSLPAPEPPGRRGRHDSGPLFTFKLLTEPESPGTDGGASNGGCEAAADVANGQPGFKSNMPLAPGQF

[32] = target: Alpha-2A adrenergic receptor (Homo sapiens) (UniProt P08913); conditions: Compound concentration 10.0 uM
[33] = target: Alpha-2B adrenergic receptor (Homo sapiens) (UniProt P18089); conditions: Compound concentration 10.0 uM
[34] = target: Alpha-2C adrenergic receptor (Homo sapiens) (UniProt P18825); conditions: Compound concentration 10.0 uM
[35] = target: Beta-1 adrenergic receptor (Homo sapiens) (UniProt P08588); conditions: Compound concentration 10.0 uM
[36] = target: Muscarinic acetylcholine receptor M1 (Homo sapiens) (UniProt P11229); conditions: Compound concentration 10.0 uM
[37] = target: Muscarinic acetylcholine receptor M3 (Homo sapiens) (UniProt P20309); conditions: Compound concentration 10.0 uM
[38] = target: Muscarinic acetylcholine receptor M4 (Homo sapiens) (UniProt P08173); conditions: Compound concentration 10.0 uM
[39] = target: Muscarinic acetylcholine receptor M5 (Homo sapiens) (UniProt P08912); conditions: Compound concentration 10.0 uM
[40] = target: Beta-3 adrenergic receptor (Homo sapiens) (UniProt P13945); conditions: Compound concentration 10.0 uM
Beta-3 adrenergic receptor (Homo sapiens), sequence (P13945 whole entry, looked up): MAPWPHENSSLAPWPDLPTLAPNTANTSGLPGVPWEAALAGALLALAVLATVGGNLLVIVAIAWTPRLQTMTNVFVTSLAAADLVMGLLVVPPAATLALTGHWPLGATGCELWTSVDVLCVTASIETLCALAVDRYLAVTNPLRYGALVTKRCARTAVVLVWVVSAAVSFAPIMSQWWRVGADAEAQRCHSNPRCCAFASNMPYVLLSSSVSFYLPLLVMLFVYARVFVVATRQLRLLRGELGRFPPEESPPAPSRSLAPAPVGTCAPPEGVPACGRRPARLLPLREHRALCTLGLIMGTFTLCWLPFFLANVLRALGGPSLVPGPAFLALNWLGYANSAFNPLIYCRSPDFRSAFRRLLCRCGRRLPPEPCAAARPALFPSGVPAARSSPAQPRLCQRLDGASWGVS

[41] = target: T9, GABA-A receptor; anion channel (Rattus norvegicus) (UniProt O09028+P15431+P18506+P18508+P19969+P20236+P23574+P23576+P28471+P28473+P30191+P62813+P63079+P63138+Q91ZM7+Q9ES14); conditions: Compound concentration 10.0 uM
[42] = target: T5, Sigma intracellular receptor 2; conditions: Compound concentration 10.0 uM
[43] = target: T6, Sigma non-opioid intracellular receptor 1; conditions: Compound concentration 10.0 uM
[44] = target: 5-hydroxytryptamine receptor 2C (Homo sapiens, UniProt P28335); assay: GPCRScan assay: inhibition of 5-HT2C; set-up: radioligand conc. used [nm] 1.0 – 2.5, parental cells HEK T
D(2) dopamine receptor [45] = target: T7, D(2) dopamine receptor; assay: GPCRScan assay: inhibition of D2; set-up: radioligand conc. used [nm] 0.4 – 1.0, parental cells stable fibroblast
Histamine H4 receptor [46] = target: T8, Histamine H4 receptor; assay: GPCRScan assay: inhibition of H4; set-up: radioligand conc. used [nm] 1.0 – 5.0, parental cells HEK T
[47] = target: Peptidyl-prolyl cis-trans isomerase FKBP2 (Homo sapiens, UniProt P26885); assay: Competitive fluorescence polarization binding assay (FKBP2)
[48] = target: Peptidyl-prolyl cis-trans isomerase FKBP3 (Homo sapiens, UniProt Q00688); assay: Competitive fluorescence polarization binding assay (FKBP3)
Peptidyl-prolyl cis-trans isomerase FKBP3, sequence (Q00688 whole entry): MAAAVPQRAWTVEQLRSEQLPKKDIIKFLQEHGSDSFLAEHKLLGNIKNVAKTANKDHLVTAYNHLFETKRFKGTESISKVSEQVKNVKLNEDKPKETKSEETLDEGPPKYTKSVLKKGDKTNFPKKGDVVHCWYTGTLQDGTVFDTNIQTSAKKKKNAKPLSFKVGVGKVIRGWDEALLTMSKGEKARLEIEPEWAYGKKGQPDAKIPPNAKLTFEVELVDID

[49] = target: Peptidyl-prolyl cis-trans isomerase FKBP4 (Homo sapiens, UniProt Q02790); assay: Competitive fluorescence polarization binding assay (FKBP4)
[50] = target: 5-hydroxytryptamine receptor 2C (Homo sapiens) (UniProt P28335); conditions: Compound concentration 10.0 uM
[51] = target: 5-hydroxytryptamine receptor 6 (Homo sapiens) (UniProt P50406); conditions: Compound concentration 10.0 uM
[52] = target: T9, GABA-A receptor; anion channel (Rattus norvegicus); conditions: Compound concentration 10.0 uM; remark: listed apart in the source
[53] = target: Alpha-1A adrenergic receptor (Homo sapiens) (UniProt P35348); conditions: Compound concentration 10.0 uM
[54] = target: Beta-2 adrenergic receptor (Homo sapiens) (UniProt P07550); conditions: Compound concentration 10.0 uM
[55] = target: Muscarinic acetylcholine receptor M2 (Homo sapiens) (UniProt P08172); conditions: Compound concentration 10.0 uM
Rattus norvegicus = species on record: Rattus norvegicus; conditions: Compound concentration 10.0 uM

T2 sequence (P23975 whole entry): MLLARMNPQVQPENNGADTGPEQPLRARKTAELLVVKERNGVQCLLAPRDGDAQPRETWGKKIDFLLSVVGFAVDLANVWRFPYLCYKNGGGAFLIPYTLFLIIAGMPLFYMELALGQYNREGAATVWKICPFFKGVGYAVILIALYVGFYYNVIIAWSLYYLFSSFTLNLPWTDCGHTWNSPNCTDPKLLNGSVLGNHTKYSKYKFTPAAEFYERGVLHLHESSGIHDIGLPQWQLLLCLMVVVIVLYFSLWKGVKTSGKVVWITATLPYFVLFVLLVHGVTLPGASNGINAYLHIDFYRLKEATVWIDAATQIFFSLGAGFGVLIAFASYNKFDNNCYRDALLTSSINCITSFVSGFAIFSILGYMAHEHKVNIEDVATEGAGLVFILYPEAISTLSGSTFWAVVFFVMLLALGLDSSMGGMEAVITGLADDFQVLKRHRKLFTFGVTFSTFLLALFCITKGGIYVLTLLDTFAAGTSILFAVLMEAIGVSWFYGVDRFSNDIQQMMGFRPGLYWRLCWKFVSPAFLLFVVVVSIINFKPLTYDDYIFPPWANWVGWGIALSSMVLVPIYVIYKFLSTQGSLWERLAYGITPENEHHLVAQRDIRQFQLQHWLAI
T1 sequence (P28221 whole entry): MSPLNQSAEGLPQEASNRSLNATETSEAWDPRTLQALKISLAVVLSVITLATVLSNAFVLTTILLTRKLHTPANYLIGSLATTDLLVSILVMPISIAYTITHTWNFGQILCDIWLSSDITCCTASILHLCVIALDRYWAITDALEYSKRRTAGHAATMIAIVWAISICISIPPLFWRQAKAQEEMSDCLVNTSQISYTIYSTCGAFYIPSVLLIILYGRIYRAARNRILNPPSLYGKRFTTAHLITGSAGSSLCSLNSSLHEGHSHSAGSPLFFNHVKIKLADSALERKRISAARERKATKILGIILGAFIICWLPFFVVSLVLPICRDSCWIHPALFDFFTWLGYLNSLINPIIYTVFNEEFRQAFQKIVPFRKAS

In the case of `COc1ccc(CC[C@@H](OC(=O)[C@H]2CCCCN2C(=O)[C@@H](c2cc(OC)c(OC)c(OC)c2)C2CCCCC2)c2cccc(OCCN3CCOCC3)c2)cc1OC`, the Ki ([1]; read-out: Ki) is reported as 3130 nM, the Ki ([1]; read-out: pKi (converted)) is reported as 3090 nM and the Ki [2] is reported as over 10000 nM. It also gave a pKi [2] of under 5, a Ki ([3]; read-out: Ki) of 2180 nM and a Ki ([3]; read-out: pKi (converted)) of 2190 nM. The Ki (Histamine H2 receptor [4]; read-out: Ki) was 2960 nM, the Ki (Histamine H2 receptor [4]; read-out: pKi (converted)) was 2690 nM and the Ki [5] was 409 nM. For the same compound, the Ki [6] was 2850 nM, the inhibition [7] was 12.2% and the inhibition [8] was 30.2%. The inhibition [9] was 57%, the inhibition [10] was 12.6% and the inhibition [11] was 4.4%. For the same compound, the inhibition [12] was 19.4%, the inhibition [13] was 0.13% and the inhibition [14] was 6.87%. It also gave an inhibition [15] of -3.87%, an inhibition [16] of 19.1% and an inhibition (D(2) dopamine receptor [17]) of 14.7%. The inhibition [18] was 28.1%, the inhibition [19] was 9.71% and the inhibition [20] was 4.07%. For the same compound, the inhibition [21] was -5.1%, the inhibition [22] was 52.4% and the inhibition [23] was 68.4%. It also gave an inhibition [24] of 4.34%, an inhibition [25] of 4.39% and an inhibition [26] of 5.75%. The inhibition [27] was 14.2%, the inhibition (Histamine H2 receptor [28]) was 50.7% and the inhibition [29] was 10.2%. For the same compound, the inhibition (Histamine H4 receptor [30]) was 49.5%, the inhibition [31] was -5.8% and the inhibition [32] was 26.6%. It also gave an inhibition [33] of 19.7%, an inhibition [34] of 25.2% and an inhibition [35] of -0.58%. For the same compound, the inhibition [36] was 4.82%, the inhibition [37] was -3.44% and the inhibition [38] was 18%. It also gave an inhibition [39] of -1.68%, an inhibition [40] of 35.1% and an inhibition [41] of 20.6%. It also gave an inhibition [42] of 98.4% and an inhibition [43] of 58.1%.

Work on `COc1ccc(CC[C@@H](OC(=O)[C@@H]2CCCCN2C(=O)[C@H](c2cc(OC)c(OC)c(OC)c2)C2CCCCC2)c2cccc(OCCN3CCOCC3)c2)cc1OC` yielded a Ki [44] of over 10000 nM, a Ki (D(2) dopamine receptor [45]) of over 10000 nM and a Ki (Histamine H4 receptor [46]) of 3380 nM. For the same compound, the Ki [5] was 226 nM, the Kd [47] was 1050 nM (not active) and the Kd [48] was > 10000 nM (not active). For the same compound, the Kd [49] was > 50000 nM (not active), the inhibition [7] was -0.3% and the inhibition [8] was 0.6%. It also gave an inhibition [9] of 15.5%, an inhibition [11] of 21.9% and an inhibition [12] of 8.5%. For the same compound, the inhibition [50] was 56.1%, the inhibition [13] was 7.6% and the inhibition [14] was 25.9%. It also gave an inhibition [51] of 9.5%, an inhibition [15] of 3% and an inhibition [16] of 24.3%. For the same compound, the inhibition (D(2) dopamine receptor [17]) was 50%, the inhibition [18] was 39.7% and the inhibition [19] was 8.1%. It also gave an inhibition [20] of 9.2%, an inhibition [21] of 9.5% and an inhibition [22] of 36.9%. It also gave an inhibition [23] of 41%, an inhibition [24] of 20.9% and an inhibition [25] of 13.4%. For the same compound, the inhibition [26] was 5.9%, the inhibition [52] was 17.2% and the inhibition [27] was 37.9%. For the same compound, the inhibition (Histamine H2 receptor [28]) was 30.3%, the inhibition [29] was 12.9% and the inhibition (Histamine H4 receptor [30]) was 71.8%. The inhibition [53] was 6.7%, the inhibition [31] was -1.1% and the inhibition [32] was 23.8%. It also gave an inhibition [33] of 7.6%, an inhibition [34] of 49.7% and an inhibition [35] of -6.5%. For the same compound, the inhibition [54] was 14.5%, the inhibition [36] was 7.5% and the inhibition [55] was 7%. The inhibition [37] was 0.4%, the inhibition [38] was 3.4% and the inhibition [39] was 20.5%. For the same compound, the inhibition [40] was 37.1%, the inhibition [41] was -9.9% and the inhibition (Rattus norvegicus) was 3.1%. For the same compound, the inhibition [42] was 84.9% and the inhibition [43] was 49.4%.
